Results taken from patent US6624140B1, “Synthetic peptides with antimicrobial and endotoxin neutralizing properties for management of the sepsis syndrome” (Academisch Ziekenhuis Bij de Universiteit van Amsterdam …, priority 1997, dated 2003).
No end group written: not given here.

Experiments:
[1] = test system: Escherichia coli strain 018:K1:H7 Bort; test: Murine model of lethal peritonitis; type: in vivo, mice; conditions: at 7 days; 100 μg/mouse (4 mg/kg) 1 h after 10^4 CFU i.p.; two experiments combined
Protocol: FIG. 14. Efficacy of synthetic peptide BP2 on survival in a murine model of lethal peritonitis. Outbred female Swiss-Webster mice of 7 to 8 weeks, weighing 28 to 30 g were administered a predetermined lethal dose of 104 colony forming units (CFU) of the pathogenic strain of live E. coli […] Bort organisms by intraperitoneal (i.p.) administration in 0.5 ml pyrogen-free saline. After a delay of 1 h after infection, treated groups of mice received synthetic BP2 peptide in p.f saline at a dosage of 100 μg/mouse (approximately 4 mg/kg) and negative control groups only saline. Survival was recorded at 12 or 24 h intervals during a 7 day period of observation. […]
The efficacy of the peptides of the invention in the protection of experimental animals against the toxic effects of LPS or live pathogenic bacteria was investigated with the use of murine models of lethal endotoxemia and peritonitis Laboratory mice, which are normally tolerant to high doses of endotoxin and require a lethal dose (LD100) of approximately 1 mg, may be sensitized with Actinomycin D to 10,000×lower amounts of endotoxin for lethality. […] The survival of the treated animals was recorded at 24 h intervals during a seven day period of observation and compared with the control groups. […] The survival of the animals was recorded at 12 or 24 h intervals during a 7 day period of observation and compared with the control groups. […]

[2] = Tolerability of i.p. peptide in mice; type: in vivo; conditions: 2.5 and 5 mg/Kg i.p.; 2 week observation; Swiss mice
[3] = test system: TNF-α production; test: TNF-α in whole blood ex vivo, peptide added before LPS challenge; type: cell-based, human
Protocol: FIG. 12. Effect of pre-challenge addition of synthetic peptides on TNF-a levels induced by E. coli 0111:B4 LPS in whole blood ex vivo. The synthetic peptides BP2, BP2.1 or BP2.2 were added to whole blood containing heparin at 2 I.U/ml at the concentrations indicated and incubated for 10 min at 37° C. TNF-α concentrations were measured after incubation for 4 h at 37° C. subsequent to addition of E. coli 0111:B4 LPS at 1 ng/ml. The values represent the means of triplicate experiments. Controls only contained added LPS.
To determine whether addition of synthetic peptide to whole blood ex vivo prior to endotoxin challenge was effective in endotoxin neutralization assayed in terms of cytokine production, a synthetic peptide of the invention BP2, and the analogues BP2.1 or BP2.2 were added at concentrations of 2.5 to 20 μg/ml to whole blood and incubated for 10 min at 37° C. prior to the addition of 1 ng/ml E. coli 0111:B4 LPS. TNF-α concentrations were determined as previously described. […] The structurally related LPS-binding synthetic peptide analogues BP2.1 and BP2.2 were ineffective in endotoxin neutralization under these conditions.

[4] = Murine model of lethal endotoxemia; type: in vivo, mice; conditions: at 7 days; 5 mg/kg i.p. 20 min before Actinomycin D 800 μg/Kg plus LPS 5 μg/Kg; three experiments combined
Protocol: FIG. 13. Efficacy of synthetic peptide BP2 on survival in a murine model of lethal endotoxemia. Outbred femal Swiss-Webster mice of 7 to 8 weeks, weighing 28 to 30 g were treated with BP2 peptide by intraperitoneal (i.p) administration of a dose of 5 mg/Kg in pyrogen-free saline. Twenty minutes later the mice were challenged by i.p administration of the sensitizing agent Actinomycin D at 800 μg/Kg plus lethal concentrations of purified E. coli 0111:B4 LPS at 5 or 11 μg/Kg. Control groups only received Actinomycin D plus LPS. Survival was recorded at 24 h intervals during a 7 day period of observation. The indicated values are the combined results of three independent experiments.
The efficacy of the peptides of the invention in the protection of experimental animals against the toxic effects of LPS or live pathogenic bacteria was investigated with the use of murine models of lethal endotoxemia and peritonitis Laboratory mice, which are normally tolerant to high doses of endotoxin and require a lethal dose (LD100) of approximately 1 mg, may be sensitized with Actinomycin D to 10,000×lower amounts of endotoxin for lethality. […] The survival of the treated animals was recorded at 24 h intervals during a seven day period of observation and compared with the control groups. […]

GKWKLFKKAFKKFLKILAC-OH [BP2, Gly-Lys-Trp-Lys-Leu-Phe-Lys-Lys-Ala-Phe-Lys-Lys-Phe-Leu-Lys-Ile-Leu-Ala-Cys]
survival [1]: 78.5% | tolerability [2]: well tolerated with no adverse effects | endotoxin neutralization (TNF-α production) ([3]; 2.5 to 20 μg/ml added 10 min before 1 ng/ml LPS): dose-dependent inhibition | inhibition of cytokine (TNF-α) production ([3]; peptide 20 μg/ml added 10 min before 1 ng/ml LPS): 57% | survival [4]: 75%
